Data taken from ChEMBL document CHEMBL3397033, “Bioactive benzofuran derivatives: moracins A-Z in medicinal chemistry” (Eur J Med Chem, 2015).
Converted amounts (≈) assume the structure as drawn.

Tests used:
Bacillus cereus [1] = experiment: Antimicrobial activity against Bacillus cereus by liquid microdilution assay; format: functional
Bacillus subtilis = experiment: Antimicrobial activity against Bacillus subtilis; format: functional
Microsporum audouinii [2] = experiment: Microbicidal activity against Microsporum audouinii by liquid microdilution assay; format: functional
Bacillus cereus [3] = experiment: Microbicidal activity against Bacillus cereus by liquid microdilution assay; format: functional
[4] = Antifungal activity against Fusarium lateritium f. sp. mori; format: functional
Pseudomonas aeruginosa [5] = experiment: Microbicidal activity against Pseudomonas aeruginosa by liquid microdilution assay; format: functional
Staphylococcus aureus [6] = experiment: Antimicrobial activity against Staphylococcus aureus RN4220 assessed as inhibition of cell growth by broth microdilution method; format: functional
Enterococcus faecalis [7] = experiment: Microbicidal activity against Streptococcus faecalis by liquid microdilution assay; format: functional
Micrococcus luteus = experiment: Antimicrobial activity against Micrococcus luteus; format: functional
Escherichia coli [8] = experiment: Antimicrobial activity against Escherichia coli; format: functional
Rosellinia necatrix = experiment: Antifungal activity against Rosellinia necatrix; format: functional
[9] = Inhibition of alpha-glucosidase (unknown origin); parameters: species or system Homo sapiens
Staphylococcus aureus [10] = experiment: Antimicrobial activity against methicillin-resistant Staphylococcus aureus; format: functional
Pseudomonas aeruginosa [11] = experiment: Antimicrobial activity against Pseudomonas aeruginosa; format: functional
Escherichia coli [12] = experiment: Microbicidal activity against Escherichia coli by liquid microdilution assay; format: functional
Microsporum audouinii [13] = experiment: Antimicrobial activity against Microsporum audouinii by liquid microdilution assay; format: functional
Citrobacter freundii [14] = experiment: Microbicidal activity against Citrobacter freundii by liquid microdilution assay; format: functional
[15] = Antioxidant activity in liver (unknown origin) assessed as inhibition of Fe2+/cysteine system-induced lipid peroxidation; format: functional, tissue-based; conditions: dose or concentration not given here
[16] = Antifungal activity against Fusarium roseum; format: functional
Klebsiella pneumoniae [17] = experiment: Antimicrobial activity against Klebsiella pneumoniae; format: functional
[18] = target: Enoyl-[acyl-carrier-protein] reductase [NADPH] FabI (Staphylococcus aureus, UniProt Q6GI75); experiment: Inhibition of Staphylococcus aureus FabI-mediated trans-2-octenoyl N-acetylcysteamine (t-o-NAC thioester) substrate reduction assessed as decrease in NADPH […]
Enoyl-[acyl-carrier-protein] reductase [NADPH] FabI, sequence (Q6GI75 whole entry): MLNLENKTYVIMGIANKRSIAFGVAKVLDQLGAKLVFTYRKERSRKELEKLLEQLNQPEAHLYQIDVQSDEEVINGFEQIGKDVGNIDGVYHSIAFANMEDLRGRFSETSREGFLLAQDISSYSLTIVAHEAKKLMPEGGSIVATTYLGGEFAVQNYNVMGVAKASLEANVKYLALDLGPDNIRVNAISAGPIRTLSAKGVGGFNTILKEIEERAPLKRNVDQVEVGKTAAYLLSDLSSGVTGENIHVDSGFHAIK

Candida albicans [19] = experiment: Antimicrobial activity against Candida albicans by liquid microdilution assay; format: functional
Enterococcus faecalis [20] = experiment: Antimicrobial activity against Streptococcus faecalis by liquid microdilution assay; format: functional
Morus alba = experiment: Antioxidant activity in mulberry leaves assessed as UV-stress-induced free radical scavenging activity measured as inhibition of blue formazan at 100 uM; format: functional
Klebsiella pneumoniae [21] = experiment: Antimicrobial activity against Klebsiella pneumoniae by liquid microdilution assay; format: functional
Citrobacter freundii [22] = experiment: Antimicrobial activity against Citrobacter freundii by liquid microdilution assay; format: functional
[23] = Antifungal activity against Cochliobolus miyabeanus; format: functional; conditions: Bipolaris oryzae
Klebsiella pneumoniae [24] = experiment: Microbicidal activity against Klebsiella pneumoniae by liquid microdilution assay; format: functional
Shigella dysenteriae [25] = experiment: Microbicidal activity against Shigella dysenteriae by liquid microdilution assay; format: functional
Staphylococcus aureus [26] = experiment: Antimicrobial activity against methicillin-sensitive Staphylococcus aureus; format: functional
[27] = Antifungal activity against Stigmina mori; format: functional
RAW264.7 [28] = experiment: Antiinflammatory activity against mouse RAW264.7 cells assessed as reduction of LPS-induced NO production; format: functional, cell-based
Candida albicans [29] = experiment: Microbicidal activity against Candida albicans by liquid microdilution assay; format: functional
Staphylococcus aureus [30] = experiment: Antimicrobial activity against methicillin-resistant Staphylococcus aureus CCARM3167 assessed as inhibition of cell growth by broth microdilution method; format: functional
Escherichia coli [31] = experiment: Antimicrobial activity against Escherichia coli by liquid microdilution assay; format: functional
Staphylococcus aureus [32] = experiment: Antimicrobial activity against Staphylococcus aureus by liquid microdilution assay; format: functional
Staphylococcus aureus [33] = experiment: Inhibition of fatty acid biosynthesis in Staphylococcus aureus assessed as incorporation of [1-14C]acetate by scintillation counting analysis; format: functional, organism-based
Salmonella typhi [34] = experiment: Antimicrobial activity against Salmonella typhi by liquid microdilution assay; format: functional, Salmonella enterica subsp. enterica serovar Typhi; conditions: Salmonella enterica
[35] = Antifungal activity against Diaporthe nomurai; format: functional
Pseudomonas aeruginosa [36] = experiment: Antimicrobial activity against Pseudomonas aeruginosa by liquid microdilution assay; format: functional
RAW264.7 [37] = experiment: Antiinflammatory activity against mouse RAW264.7 cells assessed as reduction of IFNgamma-induced NO production; format: functional, cell-based
Staphylococcus aureus [38] = experiment: Inhibition of protein biosynthesis in Staphylococcus aureus assessed as incorporation of [14C]leucine by scintillation counting analysis; format: functional, organism-based
[39] = Antifungal activity against Fusarium solani f. sp. mori; format: functional
Salmonella typhi [40] = experiment: Microbicidal activity against Salmonella typhi by liquid microdilution assay; format: functional, Salmonella enterica subsp. enterica serovar Typhi; conditions: Salmonella enterica
Shigella dysenteriae [41] = experiment: Antimicrobial activity against Shigella dysenteriae by liquid microdilution assay; format: functional
[42] = Antiinflammatory activity against rat PMN assessed as inhibition of PAF-induced beta-glucuronidase release relative to control; format: functional
Staphylococcus aureus [43] = experiment: Microbicidal activity against Staphylococcus aureus by liquid microdilution assay; format: functional
Mus musculus [44] = experiment: Hypoglycemic activity in alloxan-induced diabetic mouse assessed as fasting blood glucose level at 50 mg/kg; format: functional
[45] = target: T1, Hypoxia-inducible factor 1-alpha (Homo sapiens, UniProt Q16665); experiment: Inhibition of HIF-1alpha in human Hep3B cells assessed as decrease in VEGF level at > 50 uM after 20 hrs by ELISA; format: cell-based; conditions: hep 3b2
T1 sequence (Q16665 whole entry): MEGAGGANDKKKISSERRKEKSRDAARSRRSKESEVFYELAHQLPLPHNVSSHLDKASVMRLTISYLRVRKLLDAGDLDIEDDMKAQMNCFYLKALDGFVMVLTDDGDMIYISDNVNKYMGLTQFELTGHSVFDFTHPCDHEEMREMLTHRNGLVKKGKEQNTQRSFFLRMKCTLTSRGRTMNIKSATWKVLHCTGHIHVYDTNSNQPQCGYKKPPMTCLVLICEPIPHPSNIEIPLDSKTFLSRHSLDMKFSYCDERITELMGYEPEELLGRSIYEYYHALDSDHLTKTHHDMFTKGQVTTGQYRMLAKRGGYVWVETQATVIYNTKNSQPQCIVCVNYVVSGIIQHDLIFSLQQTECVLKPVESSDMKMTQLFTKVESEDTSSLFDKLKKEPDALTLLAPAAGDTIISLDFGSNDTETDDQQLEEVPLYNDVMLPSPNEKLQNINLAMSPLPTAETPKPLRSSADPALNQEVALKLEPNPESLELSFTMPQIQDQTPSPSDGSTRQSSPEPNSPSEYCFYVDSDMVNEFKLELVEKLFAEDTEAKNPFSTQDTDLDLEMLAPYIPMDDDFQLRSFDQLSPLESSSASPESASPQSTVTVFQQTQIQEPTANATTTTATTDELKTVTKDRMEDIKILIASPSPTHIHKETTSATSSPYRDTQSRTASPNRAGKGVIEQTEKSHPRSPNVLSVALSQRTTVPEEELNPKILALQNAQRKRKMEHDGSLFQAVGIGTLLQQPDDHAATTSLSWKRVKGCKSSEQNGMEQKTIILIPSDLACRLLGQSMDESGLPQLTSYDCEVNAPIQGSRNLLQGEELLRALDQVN

[46] = target: T1, Hypoxia-inducible factor 1-alpha; experiment: Inhibition of HIF-1alpha in human Hep3B cells cotransfected with pGL3-HRE-luciferase plasmid at > 50 uM after 24 hrs by dual-luciferase reporter assay; format: cell-based; conditions: hep 3b2
Mus musculus [47] = experiment: Hypoglycemic activity in alloxan-induced diabetic mouse assessed as fasting blood glucose level at 10 mg/kg; format: functional
[48] = Cytotoxicity against human Hep3B cells assessed as cell viability after 24 hrs by MTT assay; format: cell-based, Hep 3B2

`CC(C)=CCc1c(O)cc(-c2cc3ccc(O)cc3o2)cc1O` [MORACIN C] showed an MIC (Bacillus cereus [1]) of 78 µg/mL (≈ 251 µM), an MIC (Bacillus subtilis) of 3.13 µg/mL (≈ 10.1 µM) and an MFC (Microsporum audouinii [2]) of 312 µg/mL (≈ 1010 µM). It also gave an MBC (Bacillus cereus [3]) of 156 µg/mL (≈ 503 µM), an MIC [4] of 7 µg/mL (≈ 22.6 µM) and an MBC (Pseudomonas aeruginosa [5]) of 39 µg/mL (≈ 126 µM). It also gave an MIC (Staphylococcus aureus [6]) of 32 µg/mL (≈ 103 µM), an MBC (Enterococcus faecalis [7]) of 78 µg/mL (≈ 251 µM) and an MIC (Micrococcus luteus) of 12.5 µg/mL (≈ 40.3 µM). For the same compound, the MIC (Escherichia coli [8]) was > 100 µg/mL, the MIC (Rosellinia necatrix) was 3.5 µg/mL (≈ 11.3 µM) and the IC50 [9] was 4.04 µM. For the same compound, the MIC (Staphylococcus aureus [10]) was 12.5 µg/mL (≈ 40.3 µM), the MIC (Pseudomonas aeruginosa [11]) was > 100 µg/mL and the MBC (Escherichia coli [12]) was 78 µg/mL (≈ 251 µM). For the same compound, the MIC (Microsporum audouinii [13]) was 78 µg/mL (≈ 251 µM), the MBC (Citrobacter freundii [14]) was 625 µg/mL (≈ 2010 µM) and the inhibition [15] was 73%. The MIC [16] was 3.5 µg/mL (≈ 11.3 µM), the MIC (Klebsiella pneumoniae [17]) was > 100 µg/mL and the IC50 [18] was 83.8 µM. The MIC (Candida albicans [19]) was 68 µg/mL (≈ 219 µM), the MIC (Enterococcus faecalis [20]) was 39 µg/mL (≈ 126 µM) and the inhibition (Morus alba) was 64%. For the same compound, the MIC (Klebsiella pneumoniae [21]) was 312 µg/mL (≈ 1010 µM), the MIC (Citrobacter freundii [22]) was 156 µg/mL (≈ 503 µM) and the MIC [23] was 28 µg/mL (≈ 90.2 µM). The MBC (Klebsiella pneumoniae [24]) was 625 µg/mL (≈ 2010 µM), the MBC (Shigella dysenteriae [25]) was 39 µg/mL (≈ 126 µM) and the MIC (Staphylococcus aureus [26]) was 6.25 µg/mL (≈ 20.1 µM). It also gave an MIC [27] of 112 µg/mL (≈ 361 µM), an IC50 (RAW264.7 [28]) of 8 µM and an MFC (Candida albicans [29]) of 156 µg/mL (≈ 503 µM). The MIC (Staphylococcus aureus [30]) was 32 µg/mL (≈ 103 µM), the MIC (Escherichia coli [31]) was 39 µg/mL (≈ 126 µM) and the MIC (Staphylococcus aureus [32]) was 78 µg/mL (≈ 251 µM). It also gave an IC50 (Staphylococcus aureus [33]) of 74.8 µM, an MIC (Salmonella typhi [34]) of 10 µg/mL (≈ 32.2 µM) and an MIC [35] of 14 µg/mL (≈ 45.1 µM). It also gave an MIC (Pseudomonas aeruginosa [36]) of 10 µg/mL (≈ 32.2 µM), an IC50 (RAW264.7 [37]) of 8 µM and an IC50 (Staphylococcus aureus [38]) of 188 µM. It also gave an MIC [39] of 224 µg/mL (≈ 722 µM), an MBC (Salmonella typhi [40]) of 39 µg/mL (≈ 126 µM) and an MIC (Shigella dysenteriae [41]) of 5 µg/mL (≈ 16.1 µM). The “inhibition (INH)” value [42] was 100% and the MBC (Staphylococcus aureus [43]) was 156 µg/mL (≈ 503 µM).

`Oc1cc(O)cc(-c2cc3ccc(O)cc3o2)c1` [MORACIN M] showed an MIC (Bacillus subtilis) of 100 µg/mL (≈ 413 µM), an MFC (Microsporum audouinii [2]) of 312 µg/mL (≈ 1290 µM) and an MBC (Pseudomonas aeruginosa [5]) of 625 µg/mL (≈ 2580 µM). For the same compound, the MBC (Enterococcus faecalis [7]) was 156 µg/mL (≈ 644 µM), the MIC (Micrococcus luteus) was 25 µg/mL (≈ 103 µM) and the MIC (Escherichia coli [8]) was > 100 µg/mL. For the same compound, the MIC (Staphylococcus aureus [10]) was 25 µg/mL (≈ 103 µM), the MIC (Pseudomonas aeruginosa [11]) was > 100 µg/mL and the MBC (Escherichia coli [12]) was 625 µg/mL (≈ 2580 µM). For the same compound, the MIC (Microsporum audouinii [13]) was 78 µg/mL (≈ 322 µM), the MIC (Klebsiella pneumoniae [17]) was > 100 µg/mL and the MIC (Enterococcus faecalis [20]) was 78 µg/mL (≈ 322 µM). It also gave an MIC (Klebsiella pneumoniae [21]) of 312 µg/mL (≈ 1290 µM), an Activity (Mus musculus [44]) of 20.08 mmol/L and an MIC (Citrobacter freundii [22]) of 312 µg/mL (≈ 1290 µM). It also gave an MBC (Klebsiella pneumoniae [24]) of 625 µg/mL (≈ 2580 µM), an MBC (Shigella dysenteriae [25]) of 156 µg/mL (≈ 644 µM) and an MIC (Staphylococcus aureus [26]) of 12.5 µg/mL (≈ 51.6 µM). The IC50 [45] was “Not Active”, the MIC (Escherichia coli [31]) was 78 µg/mL (≈ 322 µM) and the IC50 [46] was “Not Active”. The Activity (Mus musculus [47]) was 18.52 mmol/L, the MIC (Salmonella typhi [34]) was 78 µg/mL (≈ 322 µM) and the IC50 [48] was > 30 µM. For the same compound, the MIC (Pseudomonas aeruginosa [36]) was 156 µg/mL (≈ 644 µM), the MBC (Salmonella typhi [40]) was 156 µg/mL (≈ 644 µM) and the MIC (Shigella dysenteriae [41]) was 78 µg/mL (≈ 322 µM). The “inhibition (INH)” value [42] was 54%.
